# Experimental data taken from patent publication US20210220384A1, “ORAL ADMINISTRABLE PHARMACEUTICAL COMPOSITION” (TAIHO PHARMACEUTICAL CO., LTD., priority 2012, published 2021).
# Test: Critical relative humidity of additives by moisture sorption analyzer (Test Example 1)
# Type: physicochemical
# Conditions: of the additive (excipient) alone, moisture sorption analyzer DVS-1
# Protocol: The orally administrable pharmaceutical composition of the present invention, to which sugars having a critical relative humidity of 85% or more at 25° C. as an excipient is added, suppresses increases in FTD and TPI related substances even stored under high-humidity conditions. A “critical relative humidity” herein means a well-known indicator representing the hygroscopicity, and refers to a relative humidity when a rapid increase in the amount of moisture absorbed in a sample is observed in the case where the relative humidity is increased. The critical relative humidity can be checked by measuring the change in the weight of a sample at 25° C. and a relative humidity of from 10 to 95% using, for example, a moisture sorption analyzer (DVS-1, Surface Measurement Systems Ltd.). “A critical relative humidity at 25° C. is 85% or more” means that moisture is not substantially absorbed when the relative humidity at 25° C. is less than 85%. Also, “no critical relative humidity” means that moisture is absorbed at a low humidity depending on the humidity, and a rapid increase in the amount of moisture absorbed associated with an increase in the relative humidity is not observed.
# The critical relative humidity of additives at 25° C. shown in Tables 1 and 2 was measured using a moisture sorption analyzer (DVS-1, Surface Measurement Systems Ltd.).
row,Structure (SMILES),"Critical relative humidity (%, at 25° C.)"
1,OC[C@@H](O)[C@@H](O)[C@H](O)[C@H](O)CO [D-mannitol],95 or more %
2,OC[C@@H](O)[C@@H](O)[C@H](O)[C@@H](O)CO [D-sorbitol],50-60%
3,"O.OC[C@H]1O[C@@H](O[C@H]2[C@H](O)[C@@H](O)C(O)O[C@@H]2CO)[C@H](O)[C@@H](O)[C@H]1O (some centres unmarked) [Lactose hydrate, lactose hydrate]",95 or more %
4,"OC[C@@H](O)[C@H](O)[C@@H](O)CO [Xylitol, xylitol]",75-85%
5,"OC[C@H]1O[C@@](CO)(O[C@H]2O[C@H](CO)[C@@H](O)[C@H](O)[C@H]2O)[C@@H](O)[C@@H]1O [Sucrose, sucrose]",85 or more %
